The test system of experiment [1] is cancer cell lines across DepMap. More on the design: method as in DepMap. As to conditions: antiproliferative; GDSC1; ref DepMap; read-out: median IC50 across DepMap; cited from earlier work.
In experiment [2] the test system is Halo–p53-R273H (FL)–mCherry 293T cells versus parental 293T cells. Put plainly: flow-cytometry growth competition. In kind it is cell-based. As to conditions: for normalized_mCherry_percentage: R273H, day 8, normalized to DMSO. In outline:
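Marker-positive and marker-negative cells mixed, plated at low density and treated with varying compound concentrations, passaged and retreated as needed. Fluorophore-positive versus negative fractions quantified by flow cytometry, gated on untreated mixtures.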

For experiment [3], the system named is p53 transcriptional targets in Huh7 cells (TP53^Y220C/Y220C). Put plainly: Huh7 RNA-seq and GSEA. In kind it is cell-based. The conditions noted are these: 4 μM, 24 h, versus DMSO. As for the experimental part: Huh7 cells were passaged into six-well plates and treated with PMV6 (4 μM), p53-01 (4 μM) or DMSO for 24 h. Cells were washed once with cold PBS. Subsequently, TRIzol (Invitrogen) was added to cells and, following the manufacturer’s protocol, RNA was extracted. RNA concentration was monitored using a Qubit fluorometer (Thermo Fisher) and RNA integrity was analyzed using an Agilent Bioanalyzer. The NEBNext Ultra II RNA library prep kit (Illumina) was used to prepare an RNA-seq library. A NovaSeq 6000 machine (Illumina) was used for paired-end 150-bp RNA-seq. STAR/RSEM[68],[71] was used to align RNA-seq reads to the GENCODE v38 transcript ref.[72] and generate a count matrix. Raw counts were rounded and DESeq2 was used for downstream analysis. A preranked GSEA[74] was performed using the DESeq2 t statistic (versus DMSO-treated cells) as a rank metric using the Fischer p53 targets geneset.

The subject of experiment [4] is PLK1 and p53-Y220C localization in cotransfected 293T cells. Put plainly: colocalization assay, live-cell imaging. The class given is cell-based. The conditions noted are these: nonmitotic cells. The protocol: The 293T cells were seeded in six-well plates and cotransfected with Halo–p53-Y220C ΔTAD–mCherry and mEGFP–PLK1–SmBiT (1:1). After 1 day, the cells were passaged into 96-well plates in FluoroBrite DMEM for microscopy. The cells were imaged with the Opera Phenix Plus high-content screening system (PerkinElmer) before compound treatment and as a time series following compound treatment.

As to `CC[C@@H]1C(=O)N(C)c2cnc(Nc3ccc(C(=O)NC4CCN(C)CC4)cc3OC)nc2N1C1CCCC1` [BI2536], the IC50 in experiment [1] is 11.8 nM.
`CC[C@@H]1C(=O)N(C)c2cnc(Nc3ccc(C(=O)NCCOCCOCCOCCOCCC(=O)N4CCC(Nc5cccc6c5cc(C#CCNc5ccc(S(C)(=O)=O)cc5OC)n6CC(F)(F)F)CC4)cc3OC)nc2N1C1CCCC1` [p53-01, PMV6-PEG4-BI2536]: the normalized_mCherry_percentage in experiment [2] (1 nM) is reported as 95.51%; in experiment [2] (10 nM) it was 97.26%; in experiment [2] (100 nM), 96.23%; in experiment [2] (1 uM), 90.97%. Also, the “activity in competition” value in experiment [2] (day 8) is on record as “did not observe any activity”. Further, in experiment [3], the “normalized enrichment score (NES), Fischer p53 targets” value was found to be 1.33. Moreover, the “protein localization” value in experiment [4] was “PLK1 nuclear enrichment and colocalization with p53-Y220C”.

The values are drawn from PMC13128454, “Mutant p53 protein accumulation is selectively targetable by proximity-inducing drugs” (Nature Chemical Biology, 2025).
